# Measured values: patent US11505560B2, “Heterobifunctional compounds with improved specificity” (DANA-FARBER CANCER INSTITUTE, INC., priority 2017, dated 2022)
# Entries after “also recorded” stand apart in the source; their conditions may differ.
# Tested on: BRD2BD1, BRD2BD2, BRD3BD1, BRD3BD2, BRD4BD1, BRD4BD2 EGFP constructs
# Test: EGFP/mCherry reporter assay on individual BET bromodomains (flow cytometry)
# Type: cell-based, human
# Conditions: BRD2/3/4 BD1 and BD2
# Procedure: IKZF1A, BRD2BD1, BRD2BD2, BRD3BD1, BRD3BD2, BRD4BD1, and BRD4BD2 were subcloned into mammalian pcDNA5/FRT Vector (Ampicillin and Hygromycin B resistant) modified to contain MCS-eGFP-P2A-mCherry. […] Following 2-3 passage cycle FACS (FACSAria II, BD) was used to enrich for cells expressing eGFP and mCherry.
# Signal from 5000 cells per well was acquired in singlicate or duplicate and the eGFP and mCherry florescence monitored. Data was analyzed using FlowJo (FlowJo, LCC). […] The eGFP protein abundance relative to mCherry was then quantified as a ten-fold amplified ratio for each individual cell using the formula: 10×eGFP/mCherry. The median of the ratio was then calculated per set, normalized to the median of the DMSO ratio, and is denoted as relative abundance. Standard deviation is calculated from four replicates (n=4) unless described otherwise.
row,Compound,selectivity of degradation across BET bromodomains (in words)
1,"Cc1ncsc1-c1ccc(CNC(=O)[C@@H]2C[C@@H](O)CN2C(=O)[C@@H](NC(=O)COCCOCCOCCNC(=O)C[C@@H]2N=C(c3ccc(Cl)cc3)c3c(sc(C)c3C)-n3c(C)nnc32)C(C)(C)C)cc1 [MZ1, reference compound]",activity on most bromodomains
2,COC(=O)C[C@@H]1N=C(c2ccc(Cl)cc2)c2c(sc(C(=O)NCCCCNc3cccc4c3C(=O)N(C3CCC(=O)NC3=O)C4=O)c2C)-n2c(C)nnc21 (stereo partly drawn) [ZXH-2-184],selectively targets BRD4 for degradation and spares BRD2 and BRD3; also recorded: selective degradation of BRD4
3,COC(=O)C[C@@H]1N=C(c2ccc(Cl)cc2)c2c(sc(C(=O)NCCNc3cccc4c3C(=O)N(C3CCC(=O)NC3=O)C4=O)c2C)-n2c(C)nnc21 (stereo partly drawn) [ZXH-3-27],lack of selective degradation of BRD4
4,COC(=O)C[C@@H]1N=C(c2ccc(Cl)cc2)c2c(sc(C(=O)NCCCCCCc3cccc4c3C(=O)N(C3CCC(=O)NC3=O)C4=O)c2C)-n2c(C)nnc21 (stereo partly drawn) [ZXH-3-82],selectively targets BRD4 for degradation and spares BRD2 and BRD3

# Tested on: BRD2BD1, BRD2BD2, BRD3BD1, BRD3BD2, BRD4BD1, BRD4BD2 GFP constructs
# Test: Cellular imaging-based degradation assay (bromodomain-GFP with mCherry reporter)
# Type: cell-based, human
# Conditions: 5 h incubation, cellular imaging
# Procedure: Cells stably expressing bromodomain-GFP with mCherry reporter were seeded at 30-50% confluency in 384 well plates (3764, Corning) with 50 μL FluoroBrite DMEM media (Gibco, A18967) containing 10% FBS per well a day before compound treatment. Compounds (see Figure legends) were dispensed using D300e Digital Dispenser (HP) normalized to 0.5% DMSO and incubated with cells for 5 h. The assay plate was imaged immediately using Acumen eX3/HCl (TTPLabtech) High Content Imager with 488 nm and 561 nm lasers in 2 μm×1 μm grid per well format. The resulting images were analyzed using CellProfiler™ (Carpenter, et al., GenomeBiology 7:r100 (2006)). A series of image analysis steps (‘image analysis pipeline’) was constructed.
# The CellProfiler™ pipeline steps are briefly outlined here. First, the red and green channels were aligned and cropped to target the middle of each well (to avoid analysis of heavily clumped cells at the edges), and a background illumination function was calculated for both red and green channels of each well individually and subtracted to correct for illumination variations across the 384-well plate from various sources of error. An additional step was then applied to the green channel to suppress the analysis of large auto fluorescent artifacts and enhance the analysis of cell specific fluorescence by way of selecting for objects under a given size, 30 A.U., and with a given shape, speckles. mCherry-positive cells were then identified in the red channel filtering for objects between 8-60 pixels in diameter and using intensity to distinguish between clumped objects. The green channel was then segmented into GFP positive and negative areas and objects were labeled as GFP positive if at least 40% of it overlapped with a GFP positive area. The fraction of GFP-positive cells/mCherry-positive cells (GFP/mCherry ratio) in each well was then calculated, and the green and red images were rescaled for visualization. The GFP/mCherry ratio was normalized to DMSO and analyzed in GraphPad Prism 7.
Compound,bromodomain degradation activity and selectivity (in words),BRD3/BRD4 selective degradation observed
"COC(=O)C[C@@H]1N=C(c2ccc(Cl)cc2)c2c(sc(C(=O)NCCCCCNc3cc(F)cc4c3CN(C3CCC(=O)NC3=O)C4=O)c2C)-n2c(C)nnc21 (stereo partly drawn) [BJG-01-174, Methyl 2-((6S)-4-(4-chlorophenyl)-2-((5-((2-(2,6-dioxopiperidin-3-yl)-6-fluoro-1-oxoisoindolin-4-yl)amino)pentyl)carbamoyl)-3,9-dimethyl-6H-thieno[3,2-f][1,2,4]triazolo[4,3-a][1,4]diazepin-6-yl)acetate]",inactive degrader,–
"COC(=O)C[C@@H]1N=C(c2ccc(Cl)cc2)c2c(sc(C(=O)NCCCCCOc3cccc4c3C(=O)N(C3CCC(=O)NC3=O)C4=O)c2C)-n2c(C)nnc21 (stereo partly drawn) [BJG-02-030, Methyl 2-((6S)-4-(4-chlorophenyl)-2-((5-((2-(2,6-dioxopiperidin-3-yl)-1,3-dioxoisoindolin-4-yl)oxy)pentyl)carbamoyl)-3,9-dimethyl-6H-thieno[3,2-f][1,2,4]triazolo[4,3-a][1,4]diazepin-6-yl)acetate]","maintained BRD4BD1 degradation selectivity, with reduced activity",–
"COC(=O)C[C@@H]1N=C(c2ccc(Cl)cc2)c2c(sc(C(=O)NCCCCCNc3ccc(F)c4c3C(=O)N(C3CCC(=O)NC3=O)C4=O)c2C)-n2c(C)nnc21 (stereo partly drawn) [BJG-02-119, Methyl 2-((6S)-4-(4-chlorophenyl)-2-((5-((2-(2,6-dioxopiperidin-3-yl)-7-fluoro-1,3-dioxoisoindolin-4-yl)amino)pentyl)carbamoyl)-3,9-dimethyl-6H-thieno[3,2f][1,2,4]triazolo[4,3-a][1,4]diazepin-6-yl)acetate]","maintaining selectivity, with reduced activity as compared to ZXH-3-26",–
COC(=O)C[C@@H]1N=C(c2ccc(Cl)cc2)c2c(sc(C(=O)NCCNc3ccc4c(c3)C(=O)N(C3CCC(=O)NC3=O)C4=O)c2C)-n2c(C)nnc21 (stereo partly drawn) [ZXH-3-28],inactive molecule,–
COC(=O)C[C@@H]1N=C(c2ccc(Cl)cc2)c2c(sc(C(=O)NCCCc3cccc4c3C(=O)N(C3CCC(=O)NC3=O)C4=O)c2C)-n2c(C)nnc21 (stereo partly drawn) [ZXH-3-52],–,BRD3/BRD4 selective degraders
